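48-hour exposure; five concentrations; linearly interpolated endpoints. The concentration for 50% growth inhibition is given as GI50. The concentration for full growth arrest is given as TGI.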
Legend:
Test in all cases: NCI-60 cell line screen, 48 h
UACC-257 melanoma = tested on: UACC-257 melanoma
UACC-62 melanoma = tested on: UACC-62 melanoma
ACHN renal = tested on: ACHN renal
HCT-116 colon = tested on: HCT-116 colon
T-47D breast = tested on: T-47D breast
OVCAR-8 ovarian = tested on: OVCAR-8 ovarian
OVCAR-3 ovarian = tested on: OVCAR-3 ovarian
SW-620 colon = tested on: SW-620 colon
HT29 colon = tested on: HT29 colon
HCC-2998 colon = tested on: HCC-2998 colon
RXF 393 renal = tested on: RXF 393 renal
A549 NSCLC = tested on: A549 NSCLC
NCI/ADR-RES ovarian = tested on: NCI/ADR-RES ovarian
HS 578T breast = tested on: HS 578T breast
DU-145 prostate = tested on: DU-145 prostate
CCRF-CEM leukemia = tested on: CCRF-CEM leukemia
NCI-H460 lung = tested on: NCI-H460 lung
OVCAR-5 ovarian = tested on: OVCAR-5 ovarian
IGROV1 ovarian = tested on: IGROV1 ovarian
NCI-H23 lung = tested on: NCI-H23 lung
NCI-H522 lung = tested on: NCI-H522 lung
786-0 renal = tested on: 786-0 renal
CAKI-1 renal = tested on: CAKI-1 renal
MOLT-4 leukemia = tested on: MOLT-4 leukemia
MALME-3M melanoma = tested on: MALME-3M melanoma
HL-60(TB) leukemia = tested on: HL-60(TB) leukemia
OVCAR-4 ovarian = tested on: OVCAR-4 ovarian
EKVX NSCLC = tested on: EKVX NSCLC
UO-31 renal = tested on: UO-31 renal
SK-MEL-2 melanoma = tested on: SK-MEL-2 melanoma
HCT-15 colon = tested on: HCT-15 colon
M14 melanoma = tested on: M14 melanoma
NCI-H226 lung = tested on: NCI-H226 lung
A498 renal = tested on: A498 renal
SK-MEL-5 melanoma = tested on: SK-MEL-5 melanoma
MDA-MB-231 breast = tested on: MDA-MB-231 breast
SK-OV-3 ovarian = tested on: SK-OV-3 ovarian
K-562 leukemia = tested on: K-562 leukemia
KM12 colon = tested on: KM12 colon
COLO 205 colon = tested on: COLO 205 colon
PC-3 prostate = tested on: PC-3 prostate
SF-539 CNS = tested on: SF-539 CNS
LOX IMVI melanoma = tested on: LOX IMVI melanoma
HOP-62 NSCLC = tested on: HOP-62 NSCLC
SF-268 CNS = tested on: SF-268 CNS
SN12C renal = tested on: SN12C renal
MDA-MB-435 = tested on: MDA-MB-435
SNB-75 CNS = tested on: SNB-75 CNS
MCF7 breast = tested on: MCF7 breast
SK-MEL-28 melanoma = tested on: SK-MEL-28 melanoma
U251 CNS = tested on: U251 CNS
SNB-19 CNS = tested on: SNB-19 CNS
BT-549 breast = tested on: BT-549 breast
TK-10 renal = tested on: TK-10 renal
SR leukemia = tested on: SR leukemia
SF-295 CNS = tested on: SF-295 CNS

SMILES: NC(CCl)=NCC12CC3CC(CC(C3)C1)C2
- GI50 (UACC-257 melanoma): 1.75 µM
- TGI (UACC-257 melanoma): 5.27 µM
- GI50 (UACC-62 melanoma): 0.918 µM
- TGI (UACC-62 melanoma): 4.08 µM
- GI50 (ACHN renal): 0.567 µM
- TGI (ACHN renal): 11.6 µM
- GI50 (HCT-116 colon): 0.41 µM
- TGI (HCT-116 colon): 2.56 µM
- GI50 (T-47D breast): 1.2 µM
- TGI (T-47D breast): 20.1 µM
- GI50 (OVCAR-8 ovarian): 0.877 µM
- TGI (OVCAR-8 ovarian): 19.4 µM
- GI50 (OVCAR-3 ovarian): 0.687 µM
- TGI (OVCAR-3 ovarian): 7.23 µM
- GI50 (SW-620 colon): 0.338 µM
- TGI (SW-620 colon): 4.37 µM
- GI50 (HT29 colon): 0.458 µM
- TGI (HT29 colon): 2.93 µM
- GI50 (HCC-2998 colon): 1.65 µM
- TGI (HCC-2998 colon): 7.84 µM
- GI50 (RXF 393 renal): 0.44 µM
- TGI (RXF 393 renal): 5.4 µM
- GI50 (A549 NSCLC): 0.792 µM
- TGI (A549 NSCLC): 15.7 µM
- GI50 (NCI/ADR-RES ovarian): 0.625 µM
- TGI (NCI/ADR-RES ovarian): 14.4 µM
- GI50 (HS 578T breast): 4.47 µM
- TGI (HS 578T breast): 42.1 µM
- GI50 (DU-145 prostate): 0.608 µM
- TGI (DU-145 prostate): 3.75 µM
- GI50 (CCRF-CEM leukemia): 0.348 µM
- TGI (CCRF-CEM leukemia): 3.27 µM
- GI50 (NCI-H460 lung): 0.44 µM
- TGI (NCI-H460 lung): 4.6 µM
- GI50 (OVCAR-5 ovarian): 3.73 µM
- TGI (OVCAR-5 ovarian): 11.1 µM
- GI50 (IGROV1 ovarian): 0.525 µM
- TGI (IGROV1 ovarian): 31.7 µM
- GI50 (NCI-H23 lung): 0.678 µM
- TGI (NCI-H23 lung): 4.17 µM
- GI50 (NCI-H522 lung): 0.391 µM
- TGI (NCI-H522 lung): 2.19 µM
- GI50 (786-0 renal): 0.966 µM
- TGI (786-0 renal): 13.2 µM
- GI50 (CAKI-1 renal): 0.426 µM
- TGI (CAKI-1 renal): 2.48 µM
- GI50 (MOLT-4 leukemia): 0.333 µM
- TGI (MOLT-4 leukemia): 1.73 µM
- GI50 (MALME-3M melanoma): 6.32 µM
- TGI (MALME-3M melanoma): 27.3 µM
- GI50 (HL-60(TB) leukemia): 1.06 µM
- TGI (HL-60(TB) leukemia): 3.78 µM
- GI50 (OVCAR-4 ovarian): 1.87 µM
- TGI (OVCAR-4 ovarian): 17.4 µM
- GI50 (EKVX NSCLC): 2.23 µM
- TGI (EKVX NSCLC): 21.1 µM
- GI50 (UO-31 renal): 0.74 µM
- TGI (UO-31 renal): 15.8 µM
- GI50 (SK-MEL-2 melanoma): 2.06 µM
- TGI (SK-MEL-2 melanoma): 7.46 µM
- GI50 (HCT-15 colon): 0.807 µM
- TGI (HCT-15 colon): 13.7 µM
- GI50 (M14 melanoma): 1.32 µM
- TGI (M14 melanoma): 4.39 µM
- GI50 (NCI-H226 lung): 1.43 µM
- TGI (NCI-H226 lung): 11.3 µM
- GI50 (A498 renal): 1.37 µM
- TGI (A498 renal): 13.4 µM
- GI50 (SK-MEL-5 melanoma): 0.973 µM
- TGI (SK-MEL-5 melanoma): 3.79 µM
- GI50 (MDA-MB-231 breast): 1.75 µM
- TGI (MDA-MB-231 breast): 11.3 µM
- GI50 (SK-OV-3 ovarian): 4.1 µM
- TGI (SK-OV-3 ovarian): 16.7 µM
- GI50 (K-562 leukemia): 0.5 µM
- TGI (K-562 leukemia): 5.21 µM
- GI50 (KM12 colon): 0.96 µM
- TGI (KM12 colon): 3.47 µM
- GI50 (COLO 205 colon): 1.15 µM
- TGI (COLO 205 colon): 3.19 µM
- GI50 (PC-3 prostate): 2.05 µM
- TGI (PC-3 prostate): 13.3 µM
- GI50 (SF-539 CNS): 0.702 µM
- TGI (SF-539 CNS): 11.2 µM
- GI50 (LOX IMVI melanoma): 0.805 µM
- TGI (LOX IMVI melanoma): 2.67 µM
- GI50 (HOP-62 NSCLC): 0.796 µM
- TGI (HOP-62 NSCLC): 11.4 µM
- GI50 (SF-268 CNS): 1.9 µM
- TGI (SF-268 CNS): 12.1 µM
- GI50 (SN12C renal): 1.56 µM
- TGI (SN12C renal): 15.7 µM
- GI50 (MDA-MB-435): 0.474 µM
- TGI (MDA-MB-435): 7.11 µM
- GI50 (SNB-75 CNS): 2.21 µM
- TGI (SNB-75 CNS): 15.4 µM
- GI50 (MCF7 breast): 0.557 µM
- TGI (MCF7 breast): 6.9 µM
- GI50 (SK-MEL-28 melanoma): 1.58 µM
- TGI (SK-MEL-28 melanoma): 15.5 µM
- GI50 (U251 CNS): 1.38 µM
- TGI (U251 CNS): 12.1 µM
- GI50 (SNB-19 CNS): 10 µM
- TGI (SNB-19 CNS): 23 µM
- GI50 (BT-549 breast): 2.43 µM
- TGI (BT-549 breast): 14.2 µM
- GI50 (TK-10 renal): 1.31 µM
- TGI (TK-10 renal): 9.14 µM
- GI50 (SR leukemia): 0.116 µM
- TGI (SR leukemia): 0.706 µM
- GI50 (SF-295 CNS): 2.29 µM
- TGI (SF-295 CNS): 16.2 µM

Reference: PubChem BioAssay (NCI)
